The results in this text go back to patent US11780821B2, “Inhibitors of fibroblast activation protein” (Praxis Biotech LLC, priority 2017, dated 2023).

What all share (assay type): biochemical
For experiment [1], the target named is T1, recombinant human FAPα (rhFAPα) (Homo sapiens, UniProt Q12884).
T1 construct: purchased R&S system (so in the source)
T1 sequence (Q12884 1-760): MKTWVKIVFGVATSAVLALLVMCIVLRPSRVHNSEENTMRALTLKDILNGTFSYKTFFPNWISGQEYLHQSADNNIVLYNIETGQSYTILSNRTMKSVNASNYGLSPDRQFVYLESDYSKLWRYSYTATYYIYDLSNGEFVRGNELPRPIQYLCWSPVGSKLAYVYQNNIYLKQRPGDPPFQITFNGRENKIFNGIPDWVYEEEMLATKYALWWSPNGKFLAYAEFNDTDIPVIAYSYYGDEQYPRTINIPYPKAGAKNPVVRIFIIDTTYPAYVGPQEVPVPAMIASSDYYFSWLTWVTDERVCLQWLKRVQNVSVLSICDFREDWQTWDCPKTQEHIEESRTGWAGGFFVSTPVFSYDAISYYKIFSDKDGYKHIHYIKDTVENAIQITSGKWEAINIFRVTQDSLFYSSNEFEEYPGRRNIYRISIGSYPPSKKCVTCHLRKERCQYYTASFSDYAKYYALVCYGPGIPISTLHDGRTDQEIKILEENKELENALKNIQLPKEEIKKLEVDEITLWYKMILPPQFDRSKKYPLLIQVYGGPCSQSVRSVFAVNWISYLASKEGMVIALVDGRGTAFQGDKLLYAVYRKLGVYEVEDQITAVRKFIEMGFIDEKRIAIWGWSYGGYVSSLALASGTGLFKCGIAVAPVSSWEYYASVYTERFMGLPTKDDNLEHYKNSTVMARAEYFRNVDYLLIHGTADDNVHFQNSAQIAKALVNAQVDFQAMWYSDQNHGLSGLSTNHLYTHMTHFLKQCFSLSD
In words: FAPα enzymatic exopeptidase (dipeptidase) activity assay. The settings on record: for inhibition at 1 µM: read-out: rhFAPα (% exo inh @ 1 μM); for IC50: exopeptidase, read-out: rhFAPα (exo IC50).

Experiment [2] addresses T2, recombinant human DPPIV (rhDPPIV) (Homo sapiens, UniProt P27487).
T2 construct: purchased R&S system (so in the source)
Put plainly: DPPIV enzymatic activity assay. To be noted: H-Gly-Pro-pNA substrate.

The target in experiment [3] is T3, recombinant human PREP (rhPREP) (Homo sapiens, UniProt P48147).
T3 sequence (P48147 1-710): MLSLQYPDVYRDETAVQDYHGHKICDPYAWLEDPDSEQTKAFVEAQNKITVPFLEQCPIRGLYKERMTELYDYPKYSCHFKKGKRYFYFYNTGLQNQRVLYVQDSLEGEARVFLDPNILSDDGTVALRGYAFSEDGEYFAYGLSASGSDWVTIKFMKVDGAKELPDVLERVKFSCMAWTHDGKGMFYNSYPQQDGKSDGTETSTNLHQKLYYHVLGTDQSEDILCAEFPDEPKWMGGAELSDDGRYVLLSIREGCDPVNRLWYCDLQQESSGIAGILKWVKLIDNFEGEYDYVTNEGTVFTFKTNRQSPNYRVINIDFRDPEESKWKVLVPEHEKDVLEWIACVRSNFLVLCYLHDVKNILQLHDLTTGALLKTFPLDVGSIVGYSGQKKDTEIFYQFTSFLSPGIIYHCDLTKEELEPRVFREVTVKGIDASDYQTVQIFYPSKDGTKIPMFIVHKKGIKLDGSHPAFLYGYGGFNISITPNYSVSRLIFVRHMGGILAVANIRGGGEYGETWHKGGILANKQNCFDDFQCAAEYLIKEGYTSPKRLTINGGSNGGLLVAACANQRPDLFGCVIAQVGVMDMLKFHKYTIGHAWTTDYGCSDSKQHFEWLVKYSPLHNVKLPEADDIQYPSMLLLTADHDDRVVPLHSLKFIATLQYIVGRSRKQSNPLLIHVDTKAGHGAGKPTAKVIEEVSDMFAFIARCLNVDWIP
Put plainly: PREP enzymatic activity assay. To be noted: Z-Gly-Pro-AMC substrate. The protocol: (§1) 7-Amino-4-Methylcoumarin (AMC) release was detected by measuring fluorescence at Ex/Em 380/460 nm using a Multifunction Microplate Reader (Synergy 4, Biotek). All measurements were carried out in triplicate.

Experiment [4] has as its target T4, recombinant human DPP9 (rhDPP9) (Homo sapiens, UniProt Q86TI2).
T4 construct: purchased R&S system (so in the source)
In words: DPP9 enzymatic activity assay. The settings on record: H-Gly-Pro-AMC substrate. The protocol:
as §1

Where [5] appears, read: 1 μM test compound, Z-Gly-Pro-AMC substrate.

SMILES strings stand for the structures. Like-named read-outs stand apart in the source and are kept apart here.

T4 sequence (Q86TI2 whole entry): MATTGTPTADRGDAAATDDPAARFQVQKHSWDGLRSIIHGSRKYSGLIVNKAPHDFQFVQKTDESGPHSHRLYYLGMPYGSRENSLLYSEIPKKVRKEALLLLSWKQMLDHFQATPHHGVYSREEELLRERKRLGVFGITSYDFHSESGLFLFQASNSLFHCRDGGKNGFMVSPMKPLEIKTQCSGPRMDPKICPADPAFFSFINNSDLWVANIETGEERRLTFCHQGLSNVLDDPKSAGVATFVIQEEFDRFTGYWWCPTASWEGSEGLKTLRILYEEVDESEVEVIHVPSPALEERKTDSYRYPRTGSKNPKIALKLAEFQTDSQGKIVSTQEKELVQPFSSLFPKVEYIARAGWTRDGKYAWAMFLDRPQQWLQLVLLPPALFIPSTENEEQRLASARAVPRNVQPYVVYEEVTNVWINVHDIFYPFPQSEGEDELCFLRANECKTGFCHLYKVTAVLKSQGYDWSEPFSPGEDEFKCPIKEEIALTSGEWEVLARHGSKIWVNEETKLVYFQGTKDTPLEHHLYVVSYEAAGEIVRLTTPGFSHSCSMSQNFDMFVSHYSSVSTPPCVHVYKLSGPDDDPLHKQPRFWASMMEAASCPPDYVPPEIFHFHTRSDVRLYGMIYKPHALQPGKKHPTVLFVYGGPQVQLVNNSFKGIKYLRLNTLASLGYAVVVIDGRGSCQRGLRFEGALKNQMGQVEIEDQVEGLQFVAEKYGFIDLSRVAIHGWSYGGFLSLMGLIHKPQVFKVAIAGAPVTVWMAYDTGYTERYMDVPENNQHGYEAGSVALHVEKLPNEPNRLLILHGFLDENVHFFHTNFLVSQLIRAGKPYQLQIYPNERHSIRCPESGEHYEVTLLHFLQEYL
T2 sequence (P27487 whole entry): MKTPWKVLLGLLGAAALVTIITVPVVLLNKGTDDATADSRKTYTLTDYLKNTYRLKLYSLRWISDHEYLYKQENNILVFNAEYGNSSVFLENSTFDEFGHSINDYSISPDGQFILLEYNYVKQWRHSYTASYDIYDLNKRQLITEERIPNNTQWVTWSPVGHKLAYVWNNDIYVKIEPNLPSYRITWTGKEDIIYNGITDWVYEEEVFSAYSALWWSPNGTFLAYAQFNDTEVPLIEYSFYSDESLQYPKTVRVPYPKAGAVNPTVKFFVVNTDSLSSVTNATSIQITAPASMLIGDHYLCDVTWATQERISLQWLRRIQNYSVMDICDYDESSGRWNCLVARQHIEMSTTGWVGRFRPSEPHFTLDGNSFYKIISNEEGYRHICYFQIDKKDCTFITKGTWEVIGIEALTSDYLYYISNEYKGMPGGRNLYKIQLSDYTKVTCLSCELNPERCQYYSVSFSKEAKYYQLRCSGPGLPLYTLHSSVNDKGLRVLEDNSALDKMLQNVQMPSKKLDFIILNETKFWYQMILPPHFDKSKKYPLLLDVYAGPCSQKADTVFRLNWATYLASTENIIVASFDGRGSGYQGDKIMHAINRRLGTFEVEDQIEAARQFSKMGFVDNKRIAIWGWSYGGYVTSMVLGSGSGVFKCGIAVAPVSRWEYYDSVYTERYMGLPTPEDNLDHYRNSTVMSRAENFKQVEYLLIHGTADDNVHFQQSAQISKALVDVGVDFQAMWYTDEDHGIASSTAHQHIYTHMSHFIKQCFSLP

On to `N#Cc1ccc(C(=O)NCC(=O)N2CC(F)(F)C[C@H]2C#N)cc1F` [Compound 15, (S)-4-cyano-N-(2-(2-cyano-4,4-difluoropyrrolidin-1-yl)-2-oxoethyl)-3-fluorobenzamide], for which the inhibition at 1 µM in experiment [1] (setting [5]) was 25 to 50%.

On to `N#Cc1ccc(C(=O)NCC(=O)N2CC(F)(F)C[C@H]2C#N)cc1` [Compound 17, (S)-4-cyano-N-(2-(2-cyano-4,4-difluoropyrrolidin-1-yl)-2-oxoethyl)benzamide], for which the inhibition at 1 µM in experiment [1] (setting [5]) lay in the range of 25 to 50%.

As for `N#Cc1ccc(C(=O)NCC(=O)N2CC(F)(F)C[C@H]2C#N)c(C(F)(F)F)c1` [Compound 18, (S)-4-cyano-N-(2-(2-cyano-4,4-difluoropyrrolidin-1-yl)-2-oxoethyl)-2-(trifluoromethyl)benzamide], in experiment [1] (setting [5]), the inhibition at 1 µM was in the range of 25 to 50%.

Consider `N#C[C@@H]1CC(F)(F)CN1C(=O)CNC(=O)c1ccc2nccc(-c3ccccc3)c2c1` [Compound 19, (S)—N-(2-(2-cyano-4,4-difluoropyrrolidin-1-yl)-2-oxoethyl)-4-phenylquinoline-6-carboxamide], for which the half-inhibitory concentration (IC50) (in general, the point on the concentration scale where inhibition reaches its midpoint) is more than 10 µM in experiment [2]; more than 10 µM in experiment [3]; less than 1 µM in experiment [1] (Table 2, Z-Gly-Pro-AMC); less than 1 µM in experiment [1] (Table 3). In experiment [1] (setting [5]), the inhibition at 1 µM was more than 50%.

With `CCN1C(=O)CC[C@@H](C(=O)NCC(=O)N2CC(F)(F)C[C@H]2C#N)[C@@H]1c1ccccc1` [Compound 20, (2R,3R)—N-(2-((S)-2-cyano-4,4-difluoropyrrolidin-1-yl)-2-oxoethyl)-1-ethyl-6-oxo-2-phenylpiperidine-3-carboxamide], the inhibition at 1 µM in experiment [1] (setting [5]) lay in the range of 25 to 50%.

For `N#C[C@@H]1CC(F)(F)CN1C(=O)CNC(=O)c1ccc(=O)n2c1CCCCC2` [Compound 21, (S)—N-(2-(2-cyano-4,4-difluoropyrrolidin-1-yl)-2-oxoethyl)-4-oxo-4,6,7,8,9,10-hexahydropyrido[1,2-a]azepine-1-carboxamide], the IC50 was more than 10 µM in experiment [2]; 1 to 10 µM in experiment [3]; less than 1 µM in experiment [1] (Table 2, Z-Gly-Pro-AMC); less than 1 µM in experiment [1] (Table 3); more than 10 µM in experiment [4]. Moreover, the inhibition at 1 µM in experiment [1] (setting [5]) was more than 50%.

In the case of `N#C[C@@H]1CC(F)(F)CN1C(=O)CNC(=O)c1coc(=O)c2ccccc12` [Compound 22, (S)—N-(2-(2-cyano-4,4-difluoropyrrolidin-1-yl)-2-oxoethyl)-1-oxo-1H-isochromene-4-carboxamide], the IC50 in experiment [2] is more than 10 µM; in experiment [3], 1 to 10 µM; in experiment [1] (Table 2, Z-Gly-Pro-AMC), less than 1 µM; in experiment [1] (Table 3), less than 1 µM. Besides, in experiment [1] (setting [5]), the inhibition at 1 µM was more than 50%.

Regarding `N#C[C@@H]1CC(F)(F)CN1C(=O)C1(NC(=O)c2c[nH]c(=O)c3ccccc23)CC1` [Compound 23, (S)—N-(1-(2-cyano-4,4-difluoropyrrolidine-1-carbonyl)cyclopropyl)-1-oxo-1,2-dihydroisoquinoline-4-carboxamide], the inhibition at 1 µM in experiment [1] (setting [5]) was less than 25%.

Turning to `CC(NC(=O)c1c[nH]c(=O)c2ccccc12)C(=O)N1CC(F)(F)C[C@H]1C#N` (stereo partly drawn) [Compound 25, N-(1-((S)-2-cyano-4,4-difluoropyrrolidin-1-yl)-1-oxopropan-2-yl)-1-oxo-1,2-dihydroisoquinoline-4-carboxamide], the inhibition at 1 µM in experiment [1] is less than 25%.

Regarding `N#C[C@@H]1CC(F)(F)CN1C(=O)CNC(=O)c1c[nH]c(=O)cc1-c1ccccc1` [Compound 29, (S)—N-(2-(2-cyano-4,4-difluoropyrrolidin-1-yl)-2-oxoethyl)-6-oxo-4-phenyl-1,6-dihydropyridine-3-carboxamide], the IC50 in experiment [2] is 1 to 10 µM; in experiment [3] it was more than 10 µM; in experiment [1] (Table 2, Z-Gly-Pro-AMC), less than 1 µM; in experiment [1] (Table 3), less than 1 µM; in experiment [4], more than 10 µM. For the same molecule, in experiment [1] (setting [5]), the inhibition at 1 µM is more than 50%.

On to `COc1cnccc1C(=O)NCC(=O)N1CC(F)(F)C[C@H]1C#N` [Compound 36], for which the concentration for half-maximal inhibition (IC50) was more than 10 µM in experiment [2]; less than 1 µM in experiment [1] (Table 2, Z-Gly-Pro-AMC); less than 1 µM in experiment [1] (Table 3). For the same molecule, in experiment [1] (setting [5]), the inhibition at 1 µM was more than 50%.

In the case of `N#C[C@@H]1CC(F)(F)CN1C(=O)CNC(=O)c1ccncc1N1CCCCC1` [Compound 42], the IC50 in experiment [2] is more than 10 µM; in experiment [3], more than 10 µM; in experiment [1] (Table 2, Z-Gly-Pro-AMC) it was less than 1 µM; in experiment [1] (Table 3), less than 1 µM; in experiment [4] it was more than 10 µM. The inhibition at 1 µM in experiment [1] (setting [5]) is more than 50%.

As for `N#C[C@@H]1CC(F)(F)CN1C(=O)CNC(=O)C1=NNC(=O)C2C=CC=CC12` (some centres unmarked) [Compound 80], the IC50 in experiment [2] is more than 10 µM; in experiment [1] (Table 2, Z-Gly-Pro-AMC) it was less than 1 µM; in experiment [1] (Table 3) it was less than 1 µM. Besides, the inhibition at 1 µM in experiment [1] (setting [5]) was more than 50%.

For `Cn1nc(C(=O)NCC(=O)N2CC(F)(F)C[C@H]2C#N)c2ccccc2c1=O` [Compound 81], the inhibition at 1 µM in experiment [1] (setting [5]) is less than 25%.

In the case of `N#C[C@@H]1CC(F)(F)CN1C(=O)CCCNC(=O)c1c[nH]c(=O)c2ccccc12` [Compound 82, (S)—N-(4-(2-cyano-4,4-difluoropyrrolidin-1-yl)-4-oxobutyl)-1-oxo-1,2-dihydroisoquinoline-4-carboxamide], the inhibition at 1 µM in experiment [1] (setting [5]) was less than 25%.

On to `N#C[C@@H]1CC(F)(F)CN1C(=O)CNC(=O)c1ccc2[nH]ncc2c1` [Compound 83], for which the inhibition at 1 µM in experiment [1] (setting [5]) was 25 to 50%.

As for `N#C[C@@H]1CC(F)(F)CN1C(=O)CNC(=O)c1cc2ccncc2o1` [Compound 84], the inhibition at 1 µM in experiment [1] (setting [5]) was 25 to 50%.

Consider `N#C[C@@H]1CC(F)(F)CN1C(=O)CNC(=O)c1ccn2nccc2c1` [Compound 85], for which, in experiment [1] (setting [5]), the inhibition at 1 µM was more than 50%.

As for `COc1ccc(C(=O)NCC(=O)N2CC(F)(F)C[C@H]2C#N)c(-c2ccccc2)n1` [Compound 86, (S)—N-(2-(2-cyano-4,4-difluoropyrrolidin-1-yl)-2-oxoethyl)-6-methoxy-2-phenylnicotinamide], the inhibition at 1 µM in experiment [1] (setting [5]) is 25 to 50%.

As to `N#C[C@@H]1CC(F)(F)CN1C(=O)C1CC(NC(=O)c2c[nH]c(=O)c3ccccc23)C1` (some centres unmarked) [Compound 101], the inhibition at 1 µM in experiment [1] (setting [5]) is less than 25%.

As for `N#C[C@@H]1CC(F)(F)CN1C(=O)CNC(=O)c1ccncc1/C=C/c1ccccc1` [Compound 124, (S,E)-N-(2-(2-cyano-4,4-difluoropyrrolidin-1-yl)-2-oxoethyl)-3-styrylisonicotinamide], in experiment [1] (setting [5]), the inhibition at 1 µM is more than 50%. The IC50 in experiment [1] (Table 2, Z-Gly-Pro-AMC) was less than 1 µM; in experiment [1] (Table 3), less than 1 µM; in experiment [4] it was 1 to 10 µM.

On to `N#C[C@@H]1CC(F)(F)CN1C(=O)CNC(=O)c1ccncc1CCc1ccccc1` [Compound 125, (S)—N-(2-(2-cyano-4,4-difluoropyrrolidin-1-yl)-2-oxoethyl)-3-phenethylisonicotinamide], for which the inhibition at 1 µM in experiment [1] (setting [5]) was more than 50%. For the same molecule, the IC50 was less than 1 µM in experiment [1] (Table 2, Z-Gly-Pro-AMC); less than 1 µM in experiment [1] (Table 3); 1 to 10 µM in experiment [4].

Regarding `N#C[C@@H]1CC(F)(F)CN1C(=O)CNC(=O)c1ccc(=O)[nH]c1-c1ccccc1` [compound 30], in experiment [1] (setting [5]), the inhibition at 1 µM is less than 25%.

As to `N#C[C@H]1CC(F)(F)CN1C(=O)CNC(=O)c1ccncc1C1CC1` [compound 37], the inhibition at 1 µM in experiment [1] is more than 50%.
